Results from patent publication US20110124572A1, “SYNDECAN-4 IS A REGULATOR OF RAC1-GTP” (priority 2008, published 2011).
“And” between values parts separate entries of the source, which are not always exact repeats. Identical values can stand only once.

Tests used:
Format in all cases: cell-based, human
Rac1 = Rac1 GTPase pulldown assay (Rac1-GTP level); details: wt-, Ser179Ala and Ser179Glu syndecan-4 cell lines, Gö6976
Description: Rac1 activity was characterised by applying RAC-activation kit purchased from Millipore (Upstate) and it was used according to the manufacturer's prescription. Briefly, p21-binding domain of PAK-1 was fused to agarose beads, which specifically binds to and precipitates Rac-GTP and Cdc42-GTP from cell lysates. Cells were harvested at 70% confluency of 25 ml flasks. The wild type Syndecan-4, Ser179Ala and Ser179Glu cells were treated for 60 minutes with 1 μM PMA (Sigma-Aldrich), or 500 nM rottlerin (Sigma-Aldrich), or 10 nM Gö6976 (Biosource, Camarillo, Calif., USA). The active Rac1 was detected by Western blotting using mouse anti-Rac1 antibody (Upstate). To test whether GST-Pak1-Rac/Cdc42-binding domain could pull syndecan-4 down, the blot was probed with rabbit polyclonal anti-syndecan-4 or mouse monoclonal anti-GFP antibody.

MCF-7 cells = test: Cell migration assay (time-lapse) on fibronectin; details: nt-MCF-7 (non-transfected) cells, PMA stimulation, solitary cell migration
Description: The MCF-7 breast adenocarcinoma cells were obtained from ATCC, cultured in DMEM:F12 (Cambrex, Walkersville, Md., USA) supplemented with 10% fetal bovine serum (FBS) (Gibco, Bethesda, Md., USA), otherwise stated. The stably transfected cell lines were propagated in DMEM:F12 medium supplemented with 10% FBS and 200 μg/ml G418 (Cambrex, Walkersville, Md., USA). The cell lines were seeded onto glass coverslips or plastic dishes coated for 2 h with 10 μg/ml fibronectin (Sigma-Aldrich, St. Louis, Mo., USA). Scratch-wound assays were performed on stable transfected Syndecan-4 wild, Ser179Ala and Ser179Glu cells at 80% confluency. The cultures were scratched with a sterile P10 pipette tip 3-4 times in parallel lines. Images were taken 12, 24, 36 and 48 h following wounding.
In the cell migration assay 60% confluent MCF7 cells or the stably transfected lines were stimulated by 1 μM phorbol-12-myristate-13-acetate (PMA; from Sigma-Aldrich St. Louis, Mo., USA), otherwise stated. The images were taken using 10×, 20×0.3 objective at 3-min intervals for 2 h using inverted microscope (Leica) and organized into time-lapse movies in Adobe ImageReady® v. 8.
Results of the previous scratch-wound assay gave a hint that the Ser179Glu cells gained a migratory phenotype. […]

MCF7 cells = test: Neuronal differentiation under serum starvation; details: 4-5 weeks, bIII-tubulin marker
Description: FIG. 8. Neuronal differentiation induced by short Syndecan-4 peptides. MCF7 cells were transfected with wild type syndecan-4 (A) and DEGEpC3 (B), respectively. […] Red: b3-tubulin staining. Blue: Hoechst nuclear staining (A). DEGEpC3: […] was joined to GFP.
Short peptides with the sequence […] (SEQ.ID.NO.: 3) and […] (SEQ.ID.NO.: 4) were tested under serum starvation.

Molecule | neuronal differentiation phenotype (MCF7 cells) | also measured
Cn1c2ccccc2c2c3c(c4c5ccccc5n(CCC#N)c4c21)C(=O)NC3 [Gö6976, reference compound] |  | activated Rac1 level (Rac1): reduced
CCCCCCCCCCCCCC(=O)O[C@@H]1[C@@H](C)[C@@]2(O)[C@@H](C=C(CO)C[C@]3(O)C(=O)C(C)=C[C@@H]23)[C@@H]2C(C)(C)[C@]12OC(C)=O [PMA, phorbol-12-myristate-13-acetate, reference compound] |  | migration velocity (MCF-7 cells): 0.3±0.1 μm/min and 0.3 μm/min
MYRMKKKDEGEYDL [DEGEpC3] | neuron-like phenotype | 
RMKKKDEGDYDLG (Syndecan-4 sequence) [SEQ.ID.NO.: 4] | neuron-like phenotypes | 
RMKKKDEGEYDLG (Syndecan-4 sequence) [SEQ.ID.NO.: 3] | neuron-like phenotypes | 
